Results on eight molecules are retold here after ChEMBL document CHEMBL1136876, “On the inhibition of HIV-1 protease by hydrazino-ureas displaying the N-->C=O interaction” (Bioorg Med Chem, 2009).

A value given as a limit tells only on which side of the number the result lay.

For assay [1], the target named is T1, Protease (Human immunodeficiency virus 1, UniProt Q9YQ12). Description: Inhibition of HIV1 protease by FRET assay.
Assay [2] addresses T1, Protease. Description: Inhibition of HIV1 protease by Lineweaver-Burke method.
For assay [3], the target named is T1, Protease. Description: Inhibition of HIV1 protease by Hanes method.
The target of assay [4] is T1, Protease. As to the kind of experiment: Inhibition of HIV1 protease by Dixon method.

T1 sequence (Q9YQ12 whole entry): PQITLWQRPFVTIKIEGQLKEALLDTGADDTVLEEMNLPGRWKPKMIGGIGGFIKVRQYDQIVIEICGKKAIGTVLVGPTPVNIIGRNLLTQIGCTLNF

Regarding `C=CCOC(=O)N[C@]1(Cc2ccccc2)CC[N+]2(CCC[C@H]2C(=O)OC)C1[O-]` (some centres undefined), the IC50 against Protease [1] was more than 1000 µM.
`O=C1N[C@@H](Cc2ccccc2)C([O-])[N+]2(CCCCC2)N1Cc1ccccc1` (some centres undefined) showed an IC50 on Protease [1] of 37.2 µM. The Ki stood at 26.2 µM on Protease [2], 26.2 µM at Protease [3] and 34.8 µM at Protease [4].
In turn, `CC[C@H](C)[C@H](NC(=O)[C@@H](NC(C)(C)C)C(C)C)C(=O)NC(=O)[C@@H]1CCC[N+]12C([O-])[C@H](Cc1ccccc1)NC(=O)N2Cc1ccccc1` (some centres undefined) yielded an IC50 on Protease [1] of 169 µM. Moreover, the inhibition constant Ki was 149 µM at Protease [2], 149 µM on Protease [3] and 138 µM on Protease [4].
Molecule `CC(C)[C@H](N)C(=O)N[C@]1(Cc2ccccc2)CC[N+]2(CCC[C@H]2C(=O)NC(C)(C)C)C1[O-]` (some centres undefined) came in with an IC50 against Protease [1] of 545 µM. Also, the results for the Ki at Protease [2], at Protease [3] and on Protease [4] were 574 µM, 618 µM and 577 µM, respectively.
For `O=C1N[C@H](Cc2ccccc2)C([O-])[N+]2(CCCCC2)N1Cc1ccccc1` (some centres undefined) the same measures were 543 µM, 461 µM, 461 µM and 454 µM.
For the molecule `CC(C)[C@H](NC(C)(C)C)C(=O)NC(=O)[C@@H]1CCC[N+]12C([O-])[C@H](Cc1ccccc1)NC(=O)N2Cc1ccccc1` (some centres undefined), on Protease [1], inhibition was half-maximal at 341 µM (IC50). Moreover, the Ki at Protease [2] was found to be 292 µM; on Protease [3] it was 292 µM; at Protease [4], 286 µM.
On to `CC(C)(C)NC(=O)[C@@H]1CCC[N+]12C([O-])[C@H](Cc1ccccc1)NC(=O)N2Cc1ccccc1` (some centres undefined), for which the IC50 on Protease [1] amounted to 44.5 µM. Further, the Ki at Protease [2] is 34.3 µM; on Protease [3] it was 34.3 µM; at Protease [4], 43.9 µM.
On to `CC(C)[C@H](N)C(=O)N[C@]1(Cc2ccccc2)CC[N+]2(CCC[C@H]2C(=O)NC(=O)[C@@H](NC(C)(C)C)C(C)C)C1[O-]` (some centres undefined), for which, on Protease [1], the IC50 was found to be 204 µM. In addition, the results for the Ki at Protease [2], at Protease [3] and on Protease [4] were 99 µM, 96 µM and 96 µM, respectively.
